In PubChem BioAssay (NCI):
Values joined by “and” are separate entries in the source; they are usually repeats but may differ in a detail not shown here. Identical values can stand only once.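 Cells were grown in 96-well plates and exposed to each compound for 48 hours at five concentrations; endpoints were interpolated linearly between bracketing concentrations, or set to the highest concentration if not reached. GI50 = concentration required for 50% inhibition of growth. TGI marks complete inhibition of growth.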

Experiments:
Test in all cases: growth of human tumour cells (NCI), 48 h
[1] = system: RXF 393 renal
[2] = system: UACC-257 melanoma
[3] = system: SF-268 CNS
[4] = system: NCI-H23 lung
[5] = system: SK-MEL-5 melanoma
[6] = system: SR leukemia
[7] = system: NCI-H460 lung
[8] = system: LOX IMVI melanoma
[9] = system: SN12C renal
[10] = system: OVCAR-4 ovarian

Row | Structure (SMILES) | GI50 [1] | TGI [1] | GI50 [2] | TGI [2] | GI50 [3] | TGI [3] | GI50 [4] | TGI [4] | GI50 [5] | TGI [5] | GI50 [6] | TGI [6] | GI50 [7] | TGI [7] | GI50 [8] | TGI [8] | GI50 [9] | TGI [9] | GI50 [10] | TGI [10]
1 | Cn1cc(C2=C(c3cn(C)c4ccc(N)cc34)C(=O)NC2=O)c2ccccc21 | 8130 nM | > 25 µM | > 25 µM | > 25 µM | 15.6 µM | > 25 µM | 15.3 µM | > 25 µM | 6.91 µM | > 25 µM | 2050 nM | > 25 µM | 9.53 µM | > 25 µM | 12200 nM | > 25 µM | 13400 nM | > 25 µM | > 20.2 µM | > 25 µM
2 | COc1ccc(-c2cc(-c3ccc(Cl)cc3)c(C#N)c(=O)n2CCCCC(=O)Nc2ccccc2N)cc1 | 1690 nM | 6.89 µM | 4.48 µM | > 100 µM | 22.1 µM | > 100 µM | 12.7 µM | 55.3 µM | 2.05 µM | 4.48 µM | 1090 nM | > 100 µM | 4.26 µM | 56.6 µM | 1160 nM | 2.92 µM | 9320 nM | > 100 µM | 10.5 µM | > 100 µM
3 | Cc1nc2c(n1CC(C)(C)C)C(=O)c1ccccc1C2=O |  | > 100 µM |  | > 100 µM |  | > 100 µM |  | > 100 µM |  | > 100 µM |  | > 100 µM |  | > 100 µM |  | > 100 µM |  | > 100 µM |  | > 100 µM
4 | O=c1nc(-c2ccccc2)c2c3c(cccn13)CCC2 |  | > 100 µM |  | > 100 µM |  | > 100 µM |  | > 100 µM |  | > 100 µM |  | > 100 µM |  | > 100 µM |  | > 100 µM |  | > 100 µM |  | > 100 µM
5 | Fc1cccc(Cl)c1C1SCc2nc3ccccc3n21 (stereo not drawn) |  | > 100 µM |  | 72.7 µM |  | > 100 µM |  | 80.4 µM |  | 29.7 µM |  | 54.4 µM |  | > 100 µM |  | 38 µM |  | > 100 µM |  | > 100 µM
6 | Fc1cccc(COc2ccc(Nc3ncnc4sc(-c5ccco5)cc34)cc2Cl)c1 | > 25000 nM | > 25 µM | > 25 µM | > 25 µM | > 25 µM | > 25 µM | > 25 µM | > 25 µM | > 25 µM | > 25 µM | > 25000 nM | > 25 µM | > 25 µM | > 25 µM | > 25000 nM | > 25 µM | > 25000 nM | > 25 µM | > 25 µM | > 25 µM
7 | CC(C)n1c(/C=C/[C@@H](O)C[C@@H](O)CC(=O)O)c(-c2ccc(F)cc2)c2ccccc21 | 3540 nM and 2120 nM | > 100 µM and 18.9 µM | 52.7 µM and 47.5 µM | > 100 µM | 0.666 µM and 0.818 µM | > 100 µM | 3.29 µM and 3.86 µM | > 100 µM | 3.94 µM and 4.9 µM | 35.4 µM and 27 µM | 2160 nM and 2800 nM | > 61.7 µM | 3.91 µM and 4.98 µM | > 100 µM | 465 nM and 653 nM | > 40.1 µM and 5.62 µM | 700 nM and 598 nM | > 100 µM | 10.4 µM and 12.9 µM | > 100 µM
8 | S=C(N/N=C/c1cc(Cl)cc(Cl)c1)NC12CC3CC(CC(C3)C1)C2 | 4190 nM | > 37.2 µM | > 22.7 µM | > 100 µM | 6.18 µM | > 100 µM | 10.6 µM | > 100 µM | > 100 µM | > 100 µM | 5020 nM | > 32 µM | 2.66 µM | > 100 µM | 6090 nM | > 100 µM |  | > 100 µM | 2.12 µM | 6.07 µM
9 | CC(C)c1cccc(C(C)C)c1NC(=O)C(=O)C(C(=O)c1ccccc1-c1ccccc1)C1OC(=O)c2ccccc21 (stereo not drawn) |  | 27 µM |  | 29.9 µM |  | 61.5 µM |  | 3.32 µM |  | 29.5 µM |  | > 100 µM |  | 36.5 µM |  | 31.1 µM |  | 49.9 µM |  | 45.9 µM
10 | COc1cc(/C=C2\CN(C)CC3=C2Nc2nc(SC)[nH]c(=O)c2C3c2cc(OC)c(OC)c(OC)c2)cc(OC)c1OC (stereo not drawn) | 1810 nM | 3.45 µM | 2.24 µM | 7.63 µM | 1.66 µM | 3.4 µM | 3.54 µM | 15.8 µM | 2.83 µM | 11.9 µM | 1480 nM | > 100 µM | 2.3 µM | 5.4 µM | 1660 nM | 3.94 µM | 2980 nM | 15.5 µM | 4.99 µM | 21.2 µM
11 | Cc1cc2c(cc1C)NC1=C(N2)OC(c2c[nH]c3ccc(COc4ccccc4)cc23)C1=O (stereo not drawn) |  | > 100 µM |  | > 100 µM |  | > 100 µM |  | > 100 µM |  | > 100 µM |  | > 100 µM |  | > 100 µM |  | > 100 µM |  | > 100 µM |  | > 100 µM
12 | O=C(Nc1ccc(OC(F)(F)F)cc1)c1sccc1NCc1ccnc2ccccc12 | 1800 nM | 6.96 µM | 3.62 µM | 52.5 µM | 5.26 µM | > 100 µM | 2.18 µM | 19.6 µM | 2.37 µM | 7.21 µM | 4250 nM | > 100 µM | 4.01 µM | > 100 µM | 2850 nM | 13.5 µM | 2970 nM | > 100 µM | 4.57 µM | > 100 µM
13 | Clc1ccc(COC(Cn2ccnc2)c2ccc(Cl)cc2Cl)cc1 (stereo not drawn) | 2010 nM | 6.78 µM and 31.7 µM and 29.1 µM | 2.63 µM | 9.14 µM and 27.7 µM and 22.5 µM | 3.42 µM | 18.3 µM and 36.1 µM and 36.7 µM | 2.08 µM | 10.2 µM and 28.7 µM and 29.7 µM | 1.74 µM and 17.2 µM and 4.83 µM | 3.64 µM and 31 µM and 18.9 µM | 2790 nM | 10.6 µM and 21.6 µM and 14.7 µM | 2.69 µM | 10.1 µM and 44.4 µM and 28.7 µM | 533 nM |  | 2500 nM | 12.7 µM and 25.3 µM | 2.29 µM | 13.6 µM and 27.7 µM and 24.5 µM
14 | COC(=O)c1nc(NN)[nH]c(=O)c1CCCCCc1c(C(=O)OC)[nH]c(NN)cc1=O |  | > 100 µM |  | > 100 µM |  | > 100 µM |  | > 100 µM |  | > 100 µM |  | > 58.9 µM |  | > 100 µM |  | > 100 µM |  | > 100 µM |  | > 100 µM
15 | CC(CO)[C@H]1OC(=O)C=C2[C@@]13O[C@@H]3[C@H]1OC(=O)[C@@]3(C)[C@H]4O[C@H]4C[C@@]2(C)[C@@H]13 (stereo partly drawn) |  | 6.33 µM |  | > 26.1 µM |  | > 25.8 µM |  | > 36.6 µM |  | > 37.5 µM |  | 0.982 µM |  | > 24.4 µM |  | 1.14 µM |  | 13.6 µM |  | > 24.3 µM
